In US20060183733A1, “Treating microvasculature diseases with acetyl cholinesterase inhibitors” (priority 2005, published 2006):
“Also recorded” adds a separate entry of the source. Like-named read-outs stand apart in the source and are kept apart here.

Columns and labels:
[1] = test system: patients with GI or urinary side effects of an acetylcholinesterase inhibitor; experiment: Treatment of side effects of acetylcholinesterase inhibitors (case histories); type: in vivo; settings: for relief of urinary side effects (polyuria, frequency): Detrol / Detrol LA 2-4 mg daily with donepizil; for relief of GI side effects (nausea, diarrhea, frequent bowel movements, cramps): metoclopramide (Reglan) 5 mg before meals and at bedtime, with an acetylcholinesterase inhibitor
From the text: Metoclopramide (Reglan®) is an […].
The most extreme example of neuropathic pain arises following amputation where there is complete transection of the nerve. Pain complaints are difficult to manage with the usual combinations of anti-seizure drugs, tricyclic anti-depressants and narcotics.

[2] = test system: patients with urinary retention; experiment: Patient case histories: urinary retention (voiding trials, post void residuals); settings: for post void residuals (PVR's): before 150-200 cc
cutaneous blood flow = settings: animal models; cited from earlier work
[3] = test system: patients with phantom pain; experiment: Patient case histories: phantom pain following amputation; type: in vivo, human
From the text: The present invention further provides a method of treating phantom pain following amputation in both upper and lower extremities. “Phantom pain” is a phenomenon described following amputation of either an upper or lower extremity. The sensation is common following amputation and present with varying degrees of discomfort and debility. A patient with phantom pain is typically treated with antidepressants, Neurontin® (gabapeninand) narcotics to a varying degree. The use of acetylcholinesterase inhibitors decreases the need for narcotics and generally eliminates the need for poly pharmacy improving pain, enhancing wound healing and improved sleep pattern in amputee patients. The dose of acetylcholinesterase inhibitor is titrated to GI (gastrointestinal) tolerance with bowel movement consistency and frequency the determining factors. Treatment with acetylcholinesterase inhibitor increases the available acetylcholine which is the neurotransmitter responsible for activation of the parasysmpathic nervous system appear responsible for Noxious symptoms of phantom pain for discomfort. The present invention provides a method of treating phantom pain associated with amputation of either upper or lower extremity.

[4] = test system: patients with chronic renal insufficiency; experiment: Patient case histories: chronic renal insufficiency (serum creatinine, BUN); type: in vivo, human; settings: galantamine 4 mg orally three times daily
From the text: To postpone or avoid the sequelae of chronic renal insufficiency, treatment with acetylcholinesterase inhibitors increase the concentration of acetycholine available to promote blood flow to the renal cortex preventing loss of nephrons and allowing existing renal parenchyma to provide the vital function of the kidney. Just as parasympathetic outflow provide homeostatic neural input to the elimination of function of the intestine, the same parasympathetic innervation provides vasodilatation of the small arterioles supplying the cortex of the kidneys allowing for optimal functioning.

patients with lymphedema = type: in vivo, human
From the text: The improvement in perfusion within the small arterioles decreases the hydrostatic pressure at the end arterioles and therefore reduces interstitial fluid accumulation that impedes the return of lymph fluid within the lymphatic vessels. The physics model for this phenomenon makes use of Bernouli's equation and its relationship to a Venturi tube. Hydrostatic pressure proximal to a relative stricture creates a pressure gradient that leads to increased transudation that overwhelms the capacity of the lymphatic system to manage. The vasodilatory effects of the parasympathetic nervous system upon small arterioles produces improved perfusion and lessens the accumulation of lymphedema. A common example of lymphedema occurs following joint replacement surgery with swelling that persists for three to six months and sometimes permanently. Lymphedema following joint replacement surgery slows recovery and creates pain while predisposing to deep vein thrombosis and infection.

[5] = test system: patients with Multiple Sclerosis; type: in vivo, human; settings: galantamine 4 mg orally three times daily, foley catheter removed 48 hours later
From the text: The present invention provides an acetylcholinesterase inhibitor to increase the relative concentration of […] within the central nervous system to improve parasympathetic neural transmission and combat the features of M. S. that often present in a craniosacral distribution. Cranial symptoms include mental status changes, emotional lability as well as optic dysfunction and nystgmus. Cranial nerves that control extracular muscles are also affected. Cranial involvement can also manifest as swallowing problems with frank dysphagia. The sacral manifestations of parasympathic dysfunction relate to bowel and bladder control. The symptoms of spastic bladder, urinary retention and constipation are relieved by treatment with an Acetylcholinesterase inhibitor raising the concentrations of acetylcholine to enhance the neural transmission of the parasympathetic nervous system to facilitate normal bowel and bladder function. The craniosacral manifestations of M.S. are reflected in dysfunctional neural transmission associated with the parasympathetic nervous system and can be ameliorated or corrected by treatment with an acetylcholinesterase inhibitor. Improved blood flow within the vasovasorum of the myelin sheath/nerve is also considered useful in amelioration of MS symptoms. […]

[6] = test system: patients with diabetic polyneuropathy; type: in vivo, human
From the text: The symptoms of motor and sensory loss of diabetic polyneuropathy are ameliorated by acetylcholinesterase inhibitions by increasing concentration of acetylcholine, the principle neurotransmitter of the parasympathetic nervous system. By augmenting the trophic input of nerves of parasympathic nervous system; pain and dyserethesia are diminished and weakness/atrophy of muscles are diminished. The clinical observation in non-Alzheimer's patients is an improvement in motor and sensory function following treatment with effective doses of an acetylcholinesterase inhibitor. Improved blood flow within the microvascular circulation supplying the vasovasorum of the nerves produces the beneficial effect. By restoring blood flow to the vasovasorum of the nerves ischemic pain is relieved and normal function of the nerve is allowed to occur. The process of vasodilatation of the microvascular circulation is mediated through both neuronal and non-neuronal acetylcholine receptors stimulation by acetylcholine. Enhancement in acetylcholine levels is effected through treatment with acetylcholinesterase inhibitors.
The physiologic shift favoring vasoconstriction that is associated with diabetes is reversed following administration of an acetylcholinesterase inhibitor allowing perfusion of the microvasculature, restoring blood flow to ischemic motor and sensory nerves damaged by the effects of diabetes.

[7] = test system: patients with peripheral vascular disease and diabetes mellitus; experiment: Patient case histories: microvascular disease / vascular insufficiency; type: in vivo, human; settings: galantamine 4-8 mg two to four times daily
From the text: In summary, vascular insufficiency from diabetes is associated with compromise of the microvascular circulation. Treatment with an effective dose of an acetylcholinesterase inhibitor raises the relative concentration of acetylcholine promoting vasodilitation of the microcirculation (end arterioles) through stimulation of neuronal and non-neuronal acetylcholine receptors in the intima of the blood vessels. The beneficial effects of promoting vasodilitation and enhanced tissue perfusion correcting the dystrophic changes and alleviating ischemic pain and ulcers is readily apparent in this series of patients.
The present invention provides a method for the medical management of peripheral vascular disease. The management of peripheral vascular disease with acetylcholinesterase inhibitor addresses the central dilemma in vascular perfusion of the lower extremities. By increasing the relative concentration of acetylcholine, the parasympthetic nervous system is enhanced, improving blood flow at the tissue level by relaxation of the small end arterioles and improving perfusion therefore decreasing vascular edema, enhancing resolution of trohpic ulcers and alleviating rest pain and claudication complaints. The parasympathetic nervous system controls vascular beds in the small arterioles and by increasing the available acetylcholine, dilatation occurs and blood flow improves. By treatment with acetylcholinesterase inhibitors the end results in improved vascular blood supply, decreased congestion at the small arterioles level and improved blood supply. This is particularly necessary in diabetic patients. The presence of non-neuronal acetylcholine receptors with the intima of blood vessels at the microvascular level represents a second physiologic mechanism whereby dilatation of small blood vessels is facilitated by the use of an acetylcholinesterase inhibitor. This latter mechanism owing to the sensitive nature of the cholinesterases associated with the non neuronal acetylcholine system provides sustained cholinergic activity impacting the microvascular circulation and improving perfusion at the critical end arteriole-capillary-venule level.

[8] = test system: patients with rheumatologic conditions (RA, SLE, PMR, polymyositis); experiment: Patient case histories: rheumatological conditions; type: in vivo, human
From the text: The use of an acetylcholinesterase inhibitor raises level of acetylcholine by inhibition of cholinesterase. The Increased levels of acetylcholine stimulate neuronal receptors of the parasympathetic nervous system and non-neuronal receptors associated with the intima of blood vessels and leukocytes. This dual effect of improving flow within the microvascular circulation and stabilization of leukocytes and their adhesion to the wall of blood vessel produces the anti-inflammatory effect that is observed with the use of an acetylcholinesterase inhibitor for treatment of rheumatologic diseases.

[9] = test system: patients with myofascial pain / fibromyalgia; experiment: Patient case histories: fibromyalgia / myofascial pain syndrome; type: in vivo, human
From the text: The present invention provides a method for treating fibromyalgia and myofascial pain syndrome by increasing tissue levels of acetylcholine. Acetylcholine is the neurotransmitter of the parasympathic nervous system. The inventive method increases the relative amount of parasympathetic transmission and thereby facilitates resolution of the pain areas and diminishes the need for narcotics and polypharmacy. The reduction in the use of narcotics, NSAIDs, and tricyclic antidepressants and other medications used for pain having their deleterious side effects is a major benefit. By administration of acetyl cholinesterase inhibitor, the relative concentrations of acetylcholine are increased and available to propagate the impulses of the parasympathic nervous systems and within the non-neuronal acetylcholine receptors diminishing pain and spasms. […] The influence of non-neuronal acetylcholine receptors affected by enhanced levels of acetylcholine produces a reduction in pro-inflammatory mediators and increased blood flow to the nerve fibers involved in pain transmission. The net effect is a reduction in inflammation and improved blood flow to the vasovasorum of the affected nerves reducing the painful sensations.

[10] = test system: patients with Parkinson's disease; settings: rivastigmine 1.5-3 mg twice daily
[11] = test system: regional blood flow in the brain; settings: PET scanning; Alzheimer's patients and normal subjects; cited from earlier work
[12] = test system: patients with neuropathic pain; settings: rivastigmine test dose
[13] = rivastigmine 1.5 mg twice daily

SMILES: Cc1ccc(O)c([C@H](CCN(C(C)C)C(C)C)c2ccccc2)c1 [Detrol LA, tolterodine]
- relief of urinary side effects (polyuria, frequency) [1]: prompt reduction in their urinary frequency; also recorded: able to tolerate this regimen
- relief of urinary side effects (polyuria, frequency) ([1]; listed as Detrol): treated successfully

SMILES: CCOc1ccccc1OCCN[C@H](C)Cc1ccc(OC)c(S(N)(=O)=O)c1 [Flomax]
- voiding trial ([2]; Flomax 0.4 mg, then 0.8 mg, residuals in excess of 300 cc's before): first voiding trial was unsuccessful; also recorded: second voiding trial was also unsuccessful

SMILES: CC(=O)OC(C)C[N+](C)(C)C (stereo not shown) [Methacholine]
- cutaneous blood flow and skin temperature (cutaneous blood flow): increases cutaneous blood flow and skin temperature

SMILES: CCN(CC)CCNC(=O)c1cc(Cl)c(N)cc1OC [Reglan, metoclopramide]
- relief of GI side effects (nausea, diarrhea, frequent bowel movements, cramps) [1]: able to continue treatment with donepizil; also recorded: prompt resolution of their GI complaints; also recorded: prompt relief of their GI complaints; also recorded: treated successfully
- relief of GI side effects (nausea, diarrhea, frequent bowel movements, cramps) ([1]; listed as metoclopramide): easily managed; also recorded: ameliorated or eliminated

SMILES: COc1ccc2c3c1O[C@H]1C[C@@H](O)C=C[C@@]31CCN(C)C2 [galantamine]
- post void residuals (PVR's) ([2]; galantamine 4 mg orally three times daily): under 100 cc
- side effects ([2]; galantamine 4 mg three times daily to 8 mg two or three times daily): no untoward side effects; also recorded: mild nausea (without emesis)
- post void residuals (PVR's) ([2]; galantamine 8 mg orally twice daily): ~50 cc
- side effects ([3]; galantamine 4 mg BID titrated to four times a day): without nausea/vomiting or GI upset
- use of Oxycodone/APAP ([3]; galantamine 8 mg BID over two weeks, before: 5 tablets per day): 2-3 tablets per week
- serum creatinine ([4]; before treatment 1.8): 1.4
- BUN (blood urea nitrogen) ([4]; before treatment 32): 21
- side effects (patients with lymphedema; galantamine 4 mg orally three times daily, asthma patient): without compromise of their pulmonary condition
- post void residuals [5]: < 100 cc
- improvement in Left foot drop ([6]; galantamine titrated to 8 mg TID (a person)): 80-85%
- side effects [7]: No symptoms of diarrhea or gastroesophageal reflux disease (GERD) were reported; also recorded: no untoward side effects
- side effects ([8]; galantamine 4-8 mg three times daily): no adverse side effects of diarrhea or nausea

SMILES: CCN(C)C(=O)Oc1cccc([C@H](C)N(C)C)c1 [rivastigmine]
- side effects ([9]; rivastigmine): no ill effects; also recorded: no adverse side effects
- clinical outcome (pain) [9, 13]: significant improvement; also recorded: greater control of their pain
- clinical outcome (pain) ([9]; rivastigmine 3 mg twice daily): near complete alleviation in their pain; also recorded: pain symptoms became less frequent
- clinical outcome (narcotic use) ([9]; rivastigmine 4 mg orally twice daily titrated upward to 8 mg three times daily): use of narcotics was completely eliminated
- side effects [10]: no negative side effects
- regional blood flow in the brain / CNS structures [11]: Regional blood flow is increased; also recorded: improve blood flow to CNS structures; also recorded: improve regional blood flow in the brain
- side effects (patients with lymphedema; [13]): no ill side effects
- clinical outcome (phantom pain) [12]: notable improvement in their phantom pain within one hour
- course after the drug was withdrawn or lapsed ([6]; drug stopped after initial improvement): complaints of weakness and loss of ambulatory ability
- clinical outcome (swelling, warmth, pain) ([8]; rivastigmine 1.5 mg orally twice daily, Rheumatoid Arthritis flair-up): signs of swelling and warmth improved but the patient still had complaints of pain
- clinical outcome (pain, swelling) ([8]; rivastigmine 3 mg orally twice daily, Rheumatoid Arthritis flair-up): pain symptoms resolved within a day; also recorded: concomitant improvement in their lower extremity swelling
- side effects ([8]; rivastigmine 1.5-3 mg twice daily): no adverse side effects such as dyspepsia, diarrhea or polyuria
- recurrence under prophylaxis ([8]; rivastigmine lower dose for prophylaxis, three month): no recurrence of pain or swelling
